Assay results reported in ChEMBL document CHEMBL6071160, “Identification of a novel 10-hydroxyevodiamine prodrug as a potent topoisomerase inhibitor with improved aqueous solubility for treatment of hepatocellular carcinoma” (Eur J Med Chem, 2024).
≈ marks a conversion by molar mass, not a printed value.

What was measured:
Huh-7 [1] = test: Antiproliferative activity against human Huh-7 cells assessed as inhibition of cell proliferation incubated for 72 hrs by MTT assay; assay type: functional, cell-based; settings: Huh-7, 72 h
[2] = Aqueous solubility of the compound […] measured after 72 hrs in shaking by HPLC analysis; assay type: physicochemical
Huh-7 [3] = test: In vivo antitumor activity against human Huh-7 cells subcutaneously injected into BALB/C nude mouse assessed as tumor growth inhibition at 10 mg/kg, ip administered once daily measured after 14 days; assay type: functional; settings: Huh-7, 336 h, time 14 day, read-out: TGI
Huh-7 [4] = test: Induction of cell cycle arrest in human Huh-7 cells assessed as accumulation of cells at G1 phase 80 nM measured after 24 hrs by flow cytometric assay (reference value: 63.01%); assay type: functional
Huh-7 [5] = test: Induction of cell cycle arrest in human Huh-7 cells assessed as accumulation of cells at G2 phase 80 nM measured after 24 hrs by flow cytometric assay (reference value: 13.66%); assay type: functional
Huh-7 [6] = test: Induction of cell cycle arrest in human Huh-7 cells assessed as accumulation of cells at S phase 80 nM measured after 24 hrs by flow cytometric assay (reference value: 23.33%); assay type: functional
SK-HEP1 [7] = test: Induction of cell cycle arrest in human SK-HEP1 cells assessed as accumulation of cells at G1 phase 80 nM measured after 24 hrs by flow cytometric assay (reference value: 47.55%); assay type: functional
SK-HEP1 [8] = test: Induction of cell cycle arrest in human SK-HEP1 cells assessed as accumulation of cells at G2 phase 80 nM measured after 24 hrs by flow cytometric assay (reference value: 22.41%); assay type: functional
SK-HEP1 [9] = test: Induction of cell cycle arrest in human SK-HEP1 cells assessed as accumulation of cells at S phase 80 nM measured after 24 hrs by flow cytometric assay (reference value: 30.04%); assay type: functional
Huh-7 [10] = test: Induction of apoptosis in human Huh-7 cells assessed as viable cells at 80 nM measured after 24 hrs by Annexin-V-FITC/PI analysis (reference value: 97.46%); assay type: functional; settings: read-out: Activity
Huh-7 [11] = test: Induction of apoptosis in human Huh-7 cells assessed as early apoptotic cells at 80 nM measured after 24 hrs by Annexin-V-FITC/PI analysis (reference value: 1.04%); assay type: functional
Huh-7 [12] = test: Induction of apoptosis in human Huh-7 cells assessed as late apoptotic cells at 80 nM measured after 24 hrs by Annexin-V-FITC/PI analysis (reference value: 1.23%); assay type: functional
Huh-7 [13] = test: Induction of apoptosis in human Huh-7 cells assessed as necrotic cells at 80 nM measured after 24 hrs by Annexin-V-FITC/PI analysis (reference value: 0.27%); assay type: functional
SK-HEP1 [14] = test: Induction of apoptosis in human SK-HEP1 cells assessed as viable cells at 80 nM measured after 24 hrs by Annexin-V-FITC/PI analysis (reference value: 97.20%); assay type: functional; settings: read-out: Activity
SK-HEP1 [15] = test: Induction of apoptosis in human SK-HEP1 cells assessed as early apoptotic cells at 80 nM measured after 24 hrs by Annexin-V-FITC/PI analysis (reference value: 1.45%); assay type: functional
SK-HEP1 [16] = test: Induction of apoptosis in human SK-HEP1 cells assessed as late apoptotic cells at 80 nM measured after 24 hrs by Annexin-V-FITC/PI analysis (reference value: 0.64%); assay type: functional
SK-HEP1 [17] = test: Induction of apoptosis in human SK-HEP1 cells assessed as necrotic cells at 80 nM measured after 24 hrs by Annexin-V-FITC/PI analysis (reference value: 0.70%); assay type: functional
Huh-7 [18] = test: Induction of apoptosis in human Huh-7 cells assessed as loss of mitochondrial membrane potential by measuring JC-1 stained cells at 80 nM measured after 24 hrs by JC-1 staining based flow cytometry (reference value: 2.27%); assay type: functional
SK-HEP1 [19] = test: Induction of apoptosis in human SK-HEP1 cells assessed as loss of mitochondrial membrane potential by measuring JC-1 stained cells at 80 nM measured after 24 hrs by JC-1 staining based flow cytometry (reference value: 0.49%); assay type: functional
Huh-7 [20] = test: Induction of apoptosis in human Huh-7 cells assessed as ROS generation by measuring DCFH2-DA stained cells at 80 nM measured after 24 hrs […] (reference value: 0.45%); assay type: functional
SK-HEP1 [21] = test: Induction of apoptosis in human SK-HEP1 cells assessed as ROS generation by measuring DCFH2-DA stained cells at 80 nM measured after 24 hrs […] (reference value: 0.14%); assay type: functional

IC50 (Huh-7 [1]): 40 nM
solubility thermodynamic at 72 h [2]: 2.4 µg/mL (≈ 5.03 µM)
SMILES: CC(=O)Oc1ccc2[nH]c3c(c2c1)CCN1C(=O)c2cc(F)cc(F)c2N(c2cccc(F)c2)C31 (stereo unspecified)
inhibition in vivo at 10 mg/kg (Huh-7 [3]): 40%
Activity (Huh-7 [4]): 18.15%
Activity (Huh-7 [5]): 70.08%
Activity (Huh-7 [6]): 11.77%
Activity (SK-HEP1 [7]): 11.73%
Activity (SK-HEP1 [8]): 64.96%
Activity (SK-HEP1 [9]): 23.31%
viability at 0.08 µM (Huh-7 [10]): 82.5%
Activity (Huh-7 [11]): 6.38%
Activity (Huh-7 [12]): 10.32%
Activity (Huh-7 [13]): 0.83%
viability at 0.08 µM (SK-HEP1 [14]): 68.1%
Activity (SK-HEP1 [15]): 21.32%
Activity (SK-HEP1 [16]): 9.72%
Activity (SK-HEP1 [17]): 0.85%
Activity (Huh-7 [18]): 12.03%
Activity (SK-HEP1 [19]): 12.96%
Activity (Huh-7 [20]): 17.42%
Activity (SK-HEP1 [21]): 57.06%
